Laboratory results as given in patent publication US20220340598A1, “PYRAZOLOPYRIDINONE COMPOUNDS” (Janssen Pharmaceutica NV, priority 2017, published 2022).
Where a name gives a salt, the structure may show the parent alone.

How the values were obtained:
[1] = biological target: T1, NIH/3T3 cells overexpressing FGFR3 WT-TACC3 fusion protein (Homo sapiens, UniProt P22607); test: NIH/3T3 FGFR3 WT-TACC3 cell proliferation assay; type: cell-based; settings: 72-hr incubation, CellTiter Glo; read-out: NIH/3T3 FGFR3 WT-TACC3 CTG (IC50)
T1 construct: fused on or other part: Q9Y6A5 (Transforming acidic coiled-coil-containing protein 3)
T1 sequence (P22607 whole entry, change not shown, the tested form may be a part): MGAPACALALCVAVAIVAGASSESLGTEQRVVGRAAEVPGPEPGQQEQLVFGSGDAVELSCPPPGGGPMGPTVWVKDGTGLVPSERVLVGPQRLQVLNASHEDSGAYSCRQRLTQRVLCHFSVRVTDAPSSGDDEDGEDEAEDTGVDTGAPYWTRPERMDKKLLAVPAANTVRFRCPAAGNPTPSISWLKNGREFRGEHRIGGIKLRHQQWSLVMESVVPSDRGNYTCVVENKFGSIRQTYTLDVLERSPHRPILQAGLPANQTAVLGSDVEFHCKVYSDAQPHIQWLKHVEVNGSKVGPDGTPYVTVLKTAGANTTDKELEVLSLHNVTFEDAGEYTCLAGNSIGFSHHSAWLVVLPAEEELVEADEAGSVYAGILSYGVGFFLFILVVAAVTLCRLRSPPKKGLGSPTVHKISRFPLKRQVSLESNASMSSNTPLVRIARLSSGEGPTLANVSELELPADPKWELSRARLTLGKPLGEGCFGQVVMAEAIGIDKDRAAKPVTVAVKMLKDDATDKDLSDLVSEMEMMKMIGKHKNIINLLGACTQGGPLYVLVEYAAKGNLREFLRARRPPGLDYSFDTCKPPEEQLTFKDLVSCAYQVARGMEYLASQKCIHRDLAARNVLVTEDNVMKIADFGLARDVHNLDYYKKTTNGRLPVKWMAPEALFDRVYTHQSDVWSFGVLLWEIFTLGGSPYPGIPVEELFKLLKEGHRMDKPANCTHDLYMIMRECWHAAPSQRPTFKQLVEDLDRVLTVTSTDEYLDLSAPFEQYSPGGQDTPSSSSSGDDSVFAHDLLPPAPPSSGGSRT
Method: NIH/3T3 FGFR3 WT-TACC3 Cell Proliferation Assay
(§1) In day 1, 90 μL of cell suspension (NIH/3T3 cells overexpressing FGFR3 WT-TACC3 fusion protein) (total 30,000 cells per well in growth medium (DMEM containing 1% Glutamax, 10% FBS and 1% Pen/Strep)) was seeded in a 96-well plate and then incubated overnight at 37° C. and 5% CO2. In day 2, 10 μL of growth medium containing 10-fold stock solution of testing compound was added into cell cultures (9 dose points with 4× serial dilution, starting with 10 μM, 0.1% DMSO final). After 72-hr incubation at 37° C. and 5% CO2, in day 5 a volume of 50 μL CellTiter Glo (CTG) reagent was added into cell-containing 96-well plate and the plate was incubated at room temperature for 10 minutes before RLUs (relative light unit) were measured on a microplate reader with luminescence detection module. The RLU value was normalized to survival % and concentration-response curve was plotted using Prism to calculate IC50 (M), pIC50 (−log IC50) and HillSlope value.

[2] = biological target: T2, NIH/3T3 cells overexpressing FGFR3 V555M-TACC3 fusion protein (Homo sapiens, UniProt P22607, V555M, cells depend on it); test: NIH/3T3 FGFR3 V555M-TACC3 cell proliferation assay; type: cell-based; settings: 72-hr incubation, CellTiter Glo; read-out: NIH/3T3 FGFR3 V555M-TACC3 CTG (IC50)
T2 construct: fused on or other part: Q9Y6A5 (Transforming acidic coiled-coil-containing protein 3)
T2 sequence (P22607 whole entry V555M, the tested form may be a part): as the sequence (P22607 whole entry, change not shown, the tested form may be a part) above, with V555M counted along it
Method: NIH/3T3 FGFR3 V555M-TACC3 Cell Proliferation Assay
as §1, with “V555M-TACC3” for “WT-TACC3”

COCC(Nc1c(-c2nc3ccc(OC)cc3[nH]2)c(=O)[nH]c2cn(C)nc12)c1ncccn1 (single isomer, unassigned) [Compound 12, (S*)-7-((2-methoxy-1-(pyrimidin-2-yl)ethyl)amino)-6-(6-methoxy-1H-benzo[d]imidazol-2-yl)-2-methyl-2H-pyrazolo[4,3-b]pyridin-5(4H)-one]
GI50 [1]: 106 nM
GI50 [2]: 109 nM

CCC(Nc1c(-c2nc3ccc(OC)cc3[nH]2)c(=O)[nH]c2cn(C)nc12)c1ncccn1 (single isomer, unassigned) [Compound 17, (R*)-6(6-Methoxy-1H-benzo[d]imidazol-2-yl)-2-methyl-7-((1-(pyrimidin-2-yl)propyl)amino)-2H-pyrazolo[4,3-b]pyridin-5(4H)-one]
GI50 [1]: 27.6 nM
GI50 [2]: 23.9 nM

COc1cc2[nH]c(-c3c(NC(c4ncccn4)C(C)C)c4nn(C)cc4[nH]c3=O)nc2cn1 (single isomer, unassigned) [Compound 18, (S*)-6-(6-methoxy-1H-imidazo[4,5-c]pyridin-2-yl)-2-methyl-7-((2-methyl-1-(pyrimidin-2-yl)propyl)amino)-2H-pyrazolo[4,3-b]pyridin-5(4H)-one]
GI50 [1]: 71.9 nM
GI50 [2]: 51.5 nM

COc1cnc2nc(-c3c(NC(c4ncccn4)C(C)C)c4nn(C)cc4[nH]c3=O)[nH]c2c1 (single isomer, unassigned) [Compound 40, (S*)-6-(6-methoxy-1H-imidazo[4,5-b]pyridin-2-yl)-2-methyl-7-((2-methyl-1-(pyrimidin-2-yl)propyl)amino)-2,4-dihydro-5H-pyrazolo[4,3-b]pyridin-5-one]
GI50 [1]: 81 nM
GI50 [2]: 78.5 nM

CCC(Nc1c(-c2nc3cc(OC)c(OC)cc3[nH]2)c(=O)[nH]c2cn(C)nc12)c1ncccn1 (single isomer, unassigned) [Compound 42, (S*)-6-(5,6-dimethoxy-1H-benzo[d]imidazol-2-yl)-2-methyl-7-((1-(pyrimidin-2-yl)propyl)amino)-2H-pyrazolo[4,3-b]pyridin-5(4H)-one]
GI50 [2]: 18.2 nM

CCC(Nc1c(-c2nc3cc(OC)c(OC)cc3[nH]2)c(=O)[nH]c2cn(CC)nc12)c1ncccn1 (single isomer, unassigned) [Compound 44, (S*)-6-(5,6-dimethoxy-1H-benzo[d]imidazol-2-yl)-2-ethyl-7-((1-(pyrimidin-2-yl)propyl)amino)-2H-pyrazolo[4,3-b]pyridin-5(4H)-one]
GI50 [1]: 31.7 nM
GI50 [2]: 51.6 nM

COc1cc2nc(-c3c(NC(c4ncccn4)C4CC4)c4nn(C)cc4[nH]c3=O)[nH]c2cc1OC (single isomer, unassigned) [Compound 46, (S*)-7-((cyclopropyl(pyrimidin-2-yl)methyl)amino)-6-(5,6-dimethoxy-1H-benzo[d]imidazol-2-yl)-2-methyl-2H-pyrazolo[4,3-b]pyridin-5(4H)-one]
GI50 [1]: 22.7 nM
GI50 [2]: 27.6 nM

CC(C)[C@H](Nc1c(-c2nc3ncc(N(C)C)cc3[nH]2)c(=O)[nH]c2cn(C)nc12)c1ncccn1 (stereo in doubt) [Compound 23, (S*)-6-(6-(dimethylamino)-1H-imidazo[4,5-b]pyridin-2-yl)-2-methyl-7-((2-methyl-1-(pyrimidin-2-yl)propyl)amino)-2H-pyrazolo[4,3-b]pyridin-5(4H)-one 0.14 formate]
GI50 [1]: 58 nM
GI50 [2]: 37.3 nM

COc1cc(F)c2nc(-c3c(N[C@@H](C)c4ncccn4)c4nn(C)cc4[nH]c3=O)[nH]c2c1 [Compound 2, (S)-6-(4-fluoro-6-methoxy-1H-benzo[d]imidazol-2-yl)-2-methyl-7-((1-(pyrimidin-2-yl)-ethyl)amino)-2H-pyrazolo[4,3-b]pyridin-5(4H)-one]
GI50 [1]: 18 nM
GI50 [2]: 16.1 nM

COc1cnc2nc(-c3c(N[C@@H](C)c4ncccn4)c4nn(C)cc4[nH]c3=O)[nH]c2c1 [Compound 3, (S)-6-(6-methoxy-1H-imidazo[4,5-b]pyridin-2-yl)-2-methyl-7-((1-(pyrimidin-2-yl)ethyl)amino)-2H-pyrazolo[4,3-b]pyridin-5(4H)-one]
GI50 [1]: 23.4 nM
GI50 [2]: 32.6 nM

CCn1cc2[nH]c(=O)c(-c3nc4ccc(OC)cc4[nH]3)c(N[C@@H](C)c3ncccn3)c2n1 [Compound 4, (S)-2-ethyl-6-(6-methoxy-1H-benzo[d]imidazol-2-yl)-7-((1-(pyrimidin-2-yl)ethyl)amino)-2H-pyrazolo[4,3-b]pyridin-5(4H)-one]
GI50 [1]: 21.9 nM
GI50 [2]: 31.8 nM

CCOc1cc2[nH]c(-c3c(N[C@@H](C)c4ncccn4)c4nn(C)cc4[nH]c3=O)nc2cc1OC [Compound 7, (S)-6-(6-ethoxy-5-methoxy-1H-benzo[d]imidazol-2-yl)-2-methyl-7-((1-(pyrimidin-2-yl)ethyl)amino)-2,4-dihydro-5H-pyrazolo[4,3-b]pyridin-5-one]
GI50 [1]: 6.03 nM
GI50 [2]: 6.37 nM

CCOc1cc2[nH]c(-c3c(N[C@@H](C)c4ncccn4)c4nn(CC)cc4[nH]c3=O)nc2cc1OC [Compound 8, (S)-6-(6-ethoxy-5-methoxy-1H-benzo[d]imidazol-2-yl)-2-ethyl-7-((1-(pyrimidin-2-yl)ethyl)amino)-2H-pyrazolo[4,3-b]pyridin-5(4H)-one]
GI50 [1]: 19.1 nM
GI50 [2]: 23 nM

CC[C@H](Nc1c(-c2nc3cnc(N(C)C)cc3[nH]2)c(=O)[nH]c2cn(C)nc12)c1ncccn1 [Compound 22, (S)-6-(6-(dimethylamino)-1H-imidazo[4,5-c]pyridin-2-yl)-2-methyl-7-((1-(pyrimidin-2-yl)propyl)amino)-2H-pyrazolo[4,3-b]pyridin-5(4H)-one]
GI50 [1]: 24.4 nM
GI50 [2]: 24.6 nM

COc1cc(OC)c2nc(-c3c(N[C@@H](C)c4ncccn4)c4nn(C)cc4[nH]c3=O)[nH]c2c1 [Compound 29, (S)-6-(4,6-Dimethoxy-1H-benzo[d]imidazol-2-yl)-2-methyl-7-((1-(pyrimidin-2-yl)ethyl)amino)-2H-pyrazolo[4,3-b]pyridin-5(4H)-one]
GI50 [1]: 16 nM
GI50 [2]: 20.8 nM

COc1cc2[nH]c(-c3c(N[C@@H](C)c4ncccn4)c4nn(C)cc4[nH]c3=O)nc2cn1 [Compound 30, (S)-6-(6-methoxy-1H-imidazo[4,5-c]pyridin-2-yl)-2-methyl-7-((1-(pyrimidin-2-yl)ethyl)amino)-2H-pyrazolo[4,3-b]pyridin-5(4H)-one]
GI50 [1]: 11.1 nM
GI50 [2]: 7.88 nM

CCn1cc2[nH]c(=O)c(-c3nc4c(OC)cc(OC)cc4[nH]3)c(N[C@@H](C)c3ncccn3)c2n1 [Compound 31, (S)-6-(4,6-dimethoxy-1H-benzo[d]imidazol-2-yl)-2-ethyl-7-((1-(pyrimidin-2-yl)ethyl)amino)-2H-pyrazolo[4,3-b]pyridin-5(4H)-one]
GI50 [2]: 64.5 nM

CCn1cc2[nH]c(=O)c(-c3nc4c(OC)cccc4[nH]3)c(N[C@@H](C)c3ncccn3)c2n1 [Compound 32, (S)-2-ethyl-6-(4-methoxy-1H-benzo[d]imidazol-2-yl)-7-((1-(pyrimidin-2-yl)ethyl)amino)-2H-pyrazolo[4,3-b]pyridin-5(4H)-one]
GI50 [1]: 43.2 nM
GI50 [2]: 69.6 nM

CCn1cc2[nH]c(=O)c(-c3nc4cc(OC)c(OC)cc4[nH]3)c(N[C@@H](C)c3ncccn3)c2n1 [Compound 37, (S)-6-(5,6-dimethoxy-1H-benzo[d]imidazol-2-yl)-2-ethyl-7-((1-(pyrimidin-2-yl)ethyl)amino)-2H-pyrazolo[4,3-b]pyridin-5(4H)-one]
GI50 [1]: 16.8 nM
GI50 [2]: 29.6 nM

CCn1cc2[nH]c(=O)c(-c3nc4cc(OC)c(OCCOC)cc4[nH]3)c(N[C@@H](C)c3ncccn3)c2n1 [Compound 38, (S)-2-ethyl-6-(5-methoxy-6-(2-methoxyethoxy)-1H-benzo[d]imidazol-2-yl)-7-((1-(pyrimidin-2-yl)ethyl)amino)-2H-pyrazolo[4,3-b]pyridin-5(4H)-one]
GI50 [2]: 37.3 nM

CCn1cc2[nH]c(=O)c(-c3nc4cc(OC)c(OC)cc4[nH]3)c(N[C@@H](C)c3ccccn3)c2n1 [Compound 51, (S)-6-(5,6-dimethoxy-1H-benzo[d]imidazol-2-yl)-2-ethyl-7-((1-(pyridin-2-yl)ethyl)amino)-2,4-dihydro-5H-pyrazolo[4,3-b]pyridin-5-one]
GI50 [2]: 31.1 nM

(S)-6-(5,6-Dimethoxy-1H-benzo[d]imidazol-2-yl)-2-ethyl-7-((1-(pyrimidin-2-yl)ethyl)-amino)-2H-pyrazolo[4,3-b]pyridin-5(4H)-one [Compound 6]
GI50 [2]: 29.6 nM
